Assay: Aqueous solubility of organic solvent, EPA830.7840 flask shaking method
Type: physicochemical
Conditions: 1 atm and 23°C
Source text: The upper limit of the aqueous solubility of the organic solvent (B) is not particularly limited. The organic solvent (B) may be, for example, a water-miscible organic solvent that can be mixed with water in an arbitrary amount. […] The aqueous solubility of the organic solvent (B) represents the maximum amount (g) of the organic solvent dissolved in 100 g of water.

Structure (SMILES)	Aqueous solubility	amount of the organic solvent dissolved in 100 g of water
OCc1ccccc1 [Benzyl alcohol]	4 g/100 g of water	4 g
CCCCOCCOCCO [Diethylene glycol monobutyl ether]	miscible	miscible
COC(C)COC(C)CO (stereo not drawn) [Dipropylene glycol monomethyl ether]	miscible	
CCCOC(C)COC(C)CO (stereo not drawn) [Dipropylene glycol monopropyl ether]	18 g/100 g of water	18 g
COCC(C)O (stereo not drawn) [Propylene glycol monomethyl ether]	miscible	
CCCCOC(C)COC(C)COC(C)CO (stereo not drawn) [Tripropylene glycol monobutyl ether]	3 g/100 g of water	3 g
OCCOc1ccccc1 [ethylene glycol monophenyl ether]		2.3 g
COC(C)COC(C)COC(C)CO (stereo not drawn) [tripropylene glycol monomethyl ether]		miscible

From EP4810579A1, “AQUEOUS COATING COMPOSITION” (Chugoku Marine Paints, Ltd., priority 2023, dated 2025)
